Measured values taken from patent publication US4389412A, “Substituted cyclopropanecarboxylic acid esters and pesticidal compositions containing the same as active ingredient” (priority 1979, dated 1983).

Tests used:
[1] = test system: pests; assay: Pesticidal effectiveness, overall; settings: in vivo
From the text: The pesticidal activity of the compounds according to this invention against green rice leafhoppers (Nephotettix cincticeps Uhler), rice stem borers (Chilo suppressalis Walker), tobacco cutworms (Prodenia litura […]) and houseflies (Musca domestica), as examples of the pests against which the same compounds are considered effective, the acute toxicity data on the same compounds as determined in rat by the oral route and the median tolerance limit (TLm) data on the same compounds as determined in killifish (Orizias latipes) and guppies (Lebistes reticulatus) are shown in Table 1 alongside the corresponding values for various control compounds. The pesticidal effects were determined by the procedures set forth in Test Examples 1 through 4, while the acute toxicity to rat was determined by the procedure set forth in Test Example 9 and the toxicity to fish was determined by the procedures set forth in Test Examples 6 and 7, all those Examples appearing hereinafter.

[2] = test system: fish; assay: Toxicity to fish compared with other pyrethroids
From the text: This invention is the culmination of the above findings.

[3] = Fish toxicity test with guppies; type: in vivo, Lebistes reticulatus; settings: guppy, water, guppies, 20° C., read-out: TLm (48 hrs.)
How it was run: (§1)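 Ten female guppies, 3–4 months old, held at 20 °C in water containing surfactant and test compound added in acetone solution. TLm (median tolerance limit, ppm) determined.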

[4] = test system: guppies (Lebistes reticulatus); assay: Fish toxicity test with guppies; type: in vivo; settings: Table 1; 48 hrs.
How it was run: as §1

[5] = test system: killifish (Orizias latipes); assay: Fish toxicity test with killifish; type: in vivo; settings: Table 1; 48 hrs.
How it was run: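 Test compound dispensed from acetone solution into water at set concentrations; ten aerated-water killifish (~0.25 g, ~2.5 cm) held at 25±1° C. Deaths scored after 48 hours; TLm (median tolerance limit, ppm) determined.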

[6] = Acute toxicity test in rat by the oral route; type: in vivo; settings: in vivo, male rat, in olive oil, after 7 days
From the text: (§2) Acute toxicity test in rat by the oral route

[7] = test system: rat; assay: Acute toxicity test in rat by the oral route; type: in vivo; settings: Table 1, rat, 10080 min
From the text: as §2

[8] = test system: carp (Cyprinus carpio L); assay: Fish toxicity test with carp; type: in vivo; settings: 48 hrs., 21±1° C.; 2880 min
How it was run: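 Compound in acetone with Tween-20 dispersed in 50 L aerated water at a set concentration; five carp (about 6 g, 6 cm) exposed at 21±1° C. Deaths checked after 48 h, and TLm (median tolerance limit, ppm) determined.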

[9] = test system: tobacco cutworm (Prodenia litura); assay: Utility Example-5: spray on soy bean leaves, tobacco cutworm larvae; type: in vivo; settings: 48 h, 2 days
Method: An acetone solution of one of the test compounds as mentioned in Table 13 and Tween-20 (the same surfactant as mentioned hereinbefore) was prepared. This acetone solution was diluted with water to prepare a solution containing the test compound in a predetermined concentration. Leaves of soy bean in pots were sprayed with the above diluted solution at the rate of 20 ml/pot and, after one day, ten 3-instar larvae of tobacco cutworm (Prodenia litura) were released on the leaves. The pots were kept in a constant-temperature chamber at 25° C.

[10] = test system: crop plants; assay: Phytotoxicity test; type: in vivo; settings: 2,000 ppm solution on leaves, after 10 days
From the text: A 2,000 ppm solution of each of the cis- and trans-isomers and a 50:50 mixture of cis- and trans-isomers of Compound (1) and of Compound (2), and a 50:50 mixture of the cis- and trans-isomers of Compound (B) and Compound (E) was applied to the leaves of the following crop plants.
After 10 days, the crop plants were examined for their phytotoxicities.

| Structure (SMILES) | pesticidal effectiveness in words [1] | toxicity to fish in words [2] | LC50 at 48 h [3] | Toxicity to fish TLm, guppy [4] | Toxicity to fish TLm, killifish [5] | LD50 at 168 h [6] | Acute oral toxicity to rat LD50 [7] | TLm, Carp (48 hrs.) [8] | mortality at 6.5 ppm [9] | mortality at 13 ppm [9] | phytotoxicity [10] |
| --- | --- | --- | --- | --- | --- | --- | --- | --- | --- | --- | --- |
| C#CC(OC(=O)[C@@H]1[C@@H](C=C(Cl)Cl)C1(C)C)c1cccc(Oc2ccc(Cl)cc2)c1 (relative stereo) [Compound (2) trans-] | outstanding in pesticidal activity against various pests | by far low in toxicity to fish | – | – | – | – | – | – | – | – | – |
| C#CC(OC(=O)C1C(C=C(Cl)Cl)C1(C)C)c1cccc(Oc2ccc(Cl)cc2)c1 (stereo not drawn) [Compound (2) cis-/trans- = 50:50, 3-(4-chlorophenoxy)-α-ethynylbenzyl 2,2-dimethyl-3-(2,2-dichlorovinyl)cyclopropanecarboxylate] | – | – | > 10 µg/mL | > 10 ppm | > 10 ppm | > 3000 mg/kg | > 3000 mg/kg | 2.8 ppm | 100% | 100% | – |
| CC1(C)C(C=C(Cl)Cl)C1C(=O)OCc1cccc(Oc2ccccc2)c1 (stereo not shown) [Compound (B), Permethrin] | – | – | < 0.5 µg/mL | < 0.5 ppm | – | 300 mg/kg | – | – | 60% | 90% | did not cause any injury to each one of the crop plants |
